# Values of other authors, collected in patent US20040048919A1, “Compositions and methods for reduction of inflammatory symptoms and/or biomarkers in female subjects” (priority 2002, published 2004).
# Conditions: 3.6 gm DHA per day (50x average dietary intake)
smiles,measurement,value
"CC/C=C\C/C=C\C/C=C\C/C=C\C/C=C\C/C=C\CCC(=O)O [DHA, all-cis 4,7, 10, 13, 16, 19-docosahexaenoic acid]",toxicities on ingestion by humans,no apparent toxicities
